Reference: patent publication US9073855B2, “BCL-2 selective apoptosis-inducing agents for the treatment of cancer and immune diseases” (AbbVie Inc., priority 2008, dated 2015)

Assays:
[1] = system: Canine platelets; assay: Platelet cell viability assay (platelet-rich plasma, Cell Titer Glo); type: cell-based; details: Canis lupus familiaris, 5 h, isolated canine platelets ex vivo, five hours at 37° C.
Method in brief: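 Isolated canine platelets were incubated ex vivo with a range of compound concentrations. After 20 min equilibration at room temperature, viability was measured by Cell Titer Glo luminescence.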

[2] = system: FL5.12/Bcl-2 cells; assay: FL5.12/Bcl-2 cell viability assay under IL-3 withdrawal (CellTitre Glo); type: cell-based, murine; details: Mus musculus, IL-3 withdrawn 48 hrs, then 24 hrs with compound
Method in brief: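 Bcl-2-overexpressing murine FL5.12 transfectants underwent IL-3 removal for 48 hrs before a 24 hr compound treatment. Cell viability was quantified with CellTitre Glo.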

[3] = target: GST-Bcl-2 (Homo sapiens, UniProt P10415); assay: TR-FRET binding assay, GST-Bcl-2 with F-Bak peptide probe; details: TR-FRET Binding Affinity, GST-Bcl-2, F-Bak peptide probe
Chain of GST-Bcl-2 (P10415 whole entry): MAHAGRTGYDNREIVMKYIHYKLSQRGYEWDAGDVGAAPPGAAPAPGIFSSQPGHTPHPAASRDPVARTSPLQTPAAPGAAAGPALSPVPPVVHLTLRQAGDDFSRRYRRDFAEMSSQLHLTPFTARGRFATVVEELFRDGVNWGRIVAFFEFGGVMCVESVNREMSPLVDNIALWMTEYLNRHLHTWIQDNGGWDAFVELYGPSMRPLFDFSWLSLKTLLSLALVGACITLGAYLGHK
Method in brief: (§1)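 Compounds were serially diluted in DMSO from a 50 μM starting solution (2× the starting concentration; 10% DMSO). Plates were incubated for 3 h at room temperature, and TR-FRET was read with 340/35 nm excitation and emission at 520/525 nm (F-Bak) and 495/510 nm (Tb antibody). Ki values were calculated using Wang's competitive-binding equation.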

[4] = target: GST-Bcl-XL (Homo sapiens, UniProt Q07817); assay: TR-FRET binding assay, GST-Bcl-XL with F-Bak peptide probe; details: TR-FRET Binding Affinity, GST-Bcl-XL, F-Bak peptide probe
Chain of GST-Bcl-XL (Q07817 whole entry): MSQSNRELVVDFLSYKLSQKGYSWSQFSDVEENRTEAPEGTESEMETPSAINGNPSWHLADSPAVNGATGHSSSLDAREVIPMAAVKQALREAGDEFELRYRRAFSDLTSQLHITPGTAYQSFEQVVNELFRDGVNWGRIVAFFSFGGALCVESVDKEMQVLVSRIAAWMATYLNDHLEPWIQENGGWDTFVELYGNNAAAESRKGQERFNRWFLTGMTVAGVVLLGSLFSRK
Method in brief: as §1

| Structure (SMILES) | EC50 [1] [nM] | EC50 [2] [nM] | Ki [3] [nM] | Ki [4] [nM] |
| --- | --- | --- | --- | --- |
| CN1CCN(CCCNc2ccc(S(=O)(=O)NC(=O)c3ccc(N4CCN(CC5=C(c6ccc(Cl)cc6)CC(C)(C)CC5)CC4)cc3Oc3ccc4[nH]ccc4c3)cc2[N+](=O)[O-])CC1 [Example 96, 4-(4-{[2-(4-chlorophenyl)-4,4-dimethylcyclohex-1-en-1-yl]methyl}piperazin-1-yl)-2-(1H-indol-5-yloxy)-N-[(4-{[3-(4-methylpiperazin-1-yl)propyl]amino}-3-nitrophenyl)sulfonyl]benzamide] | 22300 | 11 | 0.047 | 8.78 |
| CC1(C)CCC(CN2CCN(c3ccc(C(=O)NS(=O)(=O)c4ccc(NCCCN5CCCC5)c([N+](=O)[O-])c4)c(Oc4ccc5[nH]ccc5c4)c3)CC2)=C(c2ccc(Cl)cc2)C1 [Example 97, 4-(4-{[2-(4-chlorophenyl)-4,4-dimethylcyclohex-1-en-1-yl]methyl}piperazin-1-yl)-2-(1H-indol-5-yloxy)-N-({3-nitro-4-[(3-pyrrolidin-1-ylpropyl)amino]phenyl}sulfonyl)benzamide] | 14100 | 13 | 0.027 | 2.61 |
| CN1CCN(CCCNc2ccc(S(=O)(=O)NC(=O)c3ccc(N4CCN(CC5=C(c6ccc(Cl)cc6)CC(C)(C)CC5)CC4)cc3Oc3cccc4[nH]ccc34)cc2[N+](=O)[O-])CC1 [Example 99, 4-(4-{[2-(4-chlorophenyl)-4,4-dimethylcyclohex-1-en-1-yl]methyl}piperazin-1-yl)-2-(1H-indol-4-yloxy)-N-[(4-{[3-(4-methylpiperazin-1-yl)propyl]amino}-3-nitrophenyl)sulfonyl]benzamide] | 21700 | 9 | 0.04 | 5.53 |
| CN(C)CCCOc1ccc(S(=O)(=O)NC(=O)c2ccc(N3CCN(CC4=C(c5ccc(Cl)cc5)CC(C)(C)CC4)CC3)cc2Oc2ccc3[nH]ccc3c2)cc1[N+](=O)[O-] [Example 100, 4-(4-{[2-(4-chlorophenyl)-4,4-dimethylcyclohex-1-en-1-yl]methyl}piperazin-1-yl)-N-({4-[3-(dimethylamino)propoxy]-3-nitrophenyl}sulfonyl)-2-(1H-indol-5-yloxy)benzamide] | 31200 | 15 | 0.116 | 8.29 |
| CC1(C)CCC(CN2CCN(c3ccc(C(=O)NS(=O)(=O)c4ccc(NCCCN5CCCC5)c([N+](=O)[O-])c4)c(Oc4cccc5[nH]ccc45)c3)CC2)=C(c2ccc(Cl)cc2)C1 [Example 102, 4-(4-{[2-(4-chlorophenyl)-4,4-dimethylcyclohex-1-en-1-yl]methyl}piperazin-1-yl)-2-(1H-indol-4-yloxy)-N-({3-nitro-4-[(3-pyrrolidin-1-ylpropyl)amino]phenyl}sulfonyl)benzamide] | 20200 | 20 | 0.035 | 2.24 |
| CN1CCC(Nc2ccc(S(=O)(=O)NC(=O)c3ccc(N4CCN(CC5=C(c6ccc(Cl)cc6)CC(C)(C)CC5)CC4)cc3Oc3cccc4[nH]ccc34)cc2[N+](=O)[O-])CC1 [Example 103, 4-(4-{[2-(4-chlorophenyl)-4,4-dimethylcyclohex-1-en-1-yl]methyl}piperazin-1-yl)-2-(1H-indol-4-yloxy)-N-({4-[(1-methylpiperidin-4-yl)amino]-3-nitrophenyl}sulfonyl)benzamide] | 31400 | 14 | 0.056 | 117 |
| CN1CCC(CNc2ccc(S(=O)(=O)NC(=O)c3ccc(N4CCN(CC5=C(c6ccc(Cl)cc6)CC(C)(C)CC5)CC4)cc3Oc3ccc4[nH]ccc4c3)cc2[N+](=O)[O-])CC1 [Example 104, 4-(4-{[2-(4-chlorophenyl)-4,4-dimethylcyclohex-1-en-1-yl]methyl}piperazin-1-yl)-2-(1H-indol-5-yloxy)-N-[(4-{[(1-methylpiperidin-4-yl)methyl]amino}-3-nitrophenyl)sulfonyl]benzamide] | > 50000 | 21 | 0.077 | 49.1 |
